Here are results for two compounds from paper PMC3574796 (Future medicinal chemistry, 2012).

SMILES strings stand for the structures.

One test relates to malaria parasite. The settings on record: cited from earlier work.
For test [1], the system named is P. falciparum parasites (DV morphology). The test can be described thus: Digestive vacuole phenotype, light microscopy of Giemsa-stained parasites. It is filed as cell-based, Plasmodium falciparum. The settings on record: 3.3 µM compound.

For the compound `Nc1cc(Cl)ccc1Cl` [2,5-dichloroaniline], in the test with malaria parasite, the Antimalarial activity result is “without antimalarial activity”.
`CC(C)C[C@H](NC(=O)[C@H]1O[C@@H]1C(=O)O)C(=O)NCCCCN=C(N)N` [Compound E64, E64]: the DV phenotype entry in test [1] was “swollen and dark staining DV phenotype”.
